What was measured:
[1] = test system: Human diploid foreskin fibroblasts (HFF); experiment: XTT 72 hr Growth Inhibition (Assay 3), HFF; type: cell-based; settings: Fibroblast, normal, B-Raf wt, Ras wt
Method: (§1) XTT 72 hr Growth Inhibition Protocol for Mammalian Cultured Cells (Assay 3)
(§2) Human diploid foreskin fibroblasts (HFF) or human colon carcinoma (Colo 201) cells were grown in Dulbecco's modified Eagle's medium (DMEM) (Invitrogen/Life Technologies) containing 10% fetal bovine serum (FBS) and the antibiotics penicillin (100 Units/ml) and streotomycin (100 micrograms/ml) (Invitrogen/Life Technologies). Growth was at 37° C. in humidified 5% CO2 incubators in 75 cm^2 plastic flasks. Cells were harvested using 0.25% trypsin/1 mM ethylenediaminetetraacetic acid (EDTA), resuspended in growth medium, and counted using a hemocytometer. Flat-bottomed 96-well plates were seeded with 2×10^3 cells/well in a volume of 200 ul from trypsinized exponentially growing cultures. To “blank” wells, growth medium was added with no additions. Cells were incubated overnight to permit attachment.
(§3) Next day, medium from wells that contained cells was replaced with 180 microliters of fresh medium. Appropriate dilutions of test compounds were added to the wells from stock soloutions of compound dissolved in dimethyl sulfoxide DMSO); final DMSO concentration in all wells was 0.2%. Cells plus compound were incubated for an additional 72 hr at 37° C. under normal growth conditions. Cells were then assayed for viability using standard XTT/PMS*. Fifty microliters of XTT/PMS solution was added to each well and plates were incubated for 90 minutes at 37° C. Absorbance at 450 nm was then determined using a 96-well UV plate reader (Molecular Devices). Under these conditions, absorbance of untreated control cells at 450 nm was at least 1.0 optical density unit/ml. […] It was equal to 100×(A450 test well/A450 untreated control well), the A450s being averages of triplicate determinations. […]

[2] = test system: human colon carcinoma (Colo 201) cells; experiment: XTT 72 hr Growth Inhibition (Assay 3), Colo201; type: cell-based; settings: colorectal cancer, B-Raf and Ras status ND
Method: as §1, §2, §3

[3] = test system: colon carcinoma (Colo 205); experiment: Methylene Blue Growth Inhibition Assay (Assay 2), Colo205; type: cell-based; settings: Homo sapiens, COLO 205, 72 h, colorectal cancer, B-Raf V599E, Ras wt, 3 days
Method: (§4) Methylene Blue Growth Inhibition Assay (Assay 2)
(§5) Normal human foreskin fibroblasts (HFF), human melanoma (A375P, SKMEL2, SKMEL3) colon carcinoma (Colo 205) were cultured in the following growth media: A375P, Colo 205, Roswell Park Memorial Institute (RPMI) 1640 (Life Technologies 22400-089) containing 10% fetal bovine serum (FBS); HFF, Dulbecco's modified Eagle Medium (DMEM) (Life Technologies 12320-032) containing 10% FBS; SKMEL2 and SKMEL3, Minimum Essential Medium (MEM, Life Technologies 11095-080) containing 1× non-essential amino acids (Life Technologies 11140-050) and 10% FBS. Cells were harvested using 0.25% trypsin/1 mM, EDTA, counted using a haemocytometer, and plated in 100 microliters of the appropriate media, at the following densities, in a 96-well tissue culture plate Falcon 3075): HFF and A375P, 5,000 cells/well; all other cell lines, 10,000 cells/well. The next day, compounds were diluted in RPMI containing 100 micrograms/ml gentamicin, at twice the final required concentration, from 10 mM stock solutions in dimethyl sulphoxide (DMSO). One hundred microliters per well of these dilutions were added to the 100 microliters of media currently on the cell plates. RPMI containing 0.6% DMSO was added to control wells. […]. The final concentration of DMSO in all wells was 0.3%. Cells were incubated at 37° C., 5% CO2 for 3 days. Medium was removed by aspiration. Cell biomass was estimated by staining cells with 90 μl per well methylene blue (Sigma M9140, 0.5% in 50:50 ethanol:water) and incubation at room temperature for at least 30 minutes. Stain was removed, the plates rinsed by immersion in deionized water and air-dried. To release stain from the cells 100 μl of solubilization solution was added (1% N-lauroyl sarcosine, sodium salt, Sigma L5125, in phosphate-buffered saline solution (PBS)), and plates were incubated at room temperature for 30 minutes. Optical density at 620 nm was measured on a microplate reader. Percent inhibition of cell growth was calculated relative to vehicle treated control wells. […]

human melanoma A375P = experiment: Methylene Blue Growth Inhibition Assay (Assay 2), A375P; type: cell-based; settings: 72 h, B-Raf V599E, Ras wt, 3 days
Method: as §4, §5

human melanoma SKMEL3 = experiment: Methylene Blue Growth Inhibition Assay (Assay 2), SKMEL3; type: cell-based; settings: SK-MEL3, 72 h, B-Raf V599E, Ras wt, 3 days
Method: as §4, §5

human melanoma SKMEL2 = experiment: Methylene Blue Growth Inhibition Assay (Assay 2), SKMEL2; type: cell-based; settings: SK-MEL-2, 72 h, B-Raf wt, [Q61R]N-Ras, 3 days
Method: as §4, §5

[4] = biological target: T1, human recombinant B-Raf protein (Homo sapiens, UniProt P15056); experiment: Raf Kinase Assay (Assay 1): incorporation of radiolabelled phosphate into GST-kdMEK; type: biochemical; settings: head: Assay 1
T1 construct: made in house; host or cells: Sf9 insect cells (baculovirus)
T1 sequence (P15056 whole entry): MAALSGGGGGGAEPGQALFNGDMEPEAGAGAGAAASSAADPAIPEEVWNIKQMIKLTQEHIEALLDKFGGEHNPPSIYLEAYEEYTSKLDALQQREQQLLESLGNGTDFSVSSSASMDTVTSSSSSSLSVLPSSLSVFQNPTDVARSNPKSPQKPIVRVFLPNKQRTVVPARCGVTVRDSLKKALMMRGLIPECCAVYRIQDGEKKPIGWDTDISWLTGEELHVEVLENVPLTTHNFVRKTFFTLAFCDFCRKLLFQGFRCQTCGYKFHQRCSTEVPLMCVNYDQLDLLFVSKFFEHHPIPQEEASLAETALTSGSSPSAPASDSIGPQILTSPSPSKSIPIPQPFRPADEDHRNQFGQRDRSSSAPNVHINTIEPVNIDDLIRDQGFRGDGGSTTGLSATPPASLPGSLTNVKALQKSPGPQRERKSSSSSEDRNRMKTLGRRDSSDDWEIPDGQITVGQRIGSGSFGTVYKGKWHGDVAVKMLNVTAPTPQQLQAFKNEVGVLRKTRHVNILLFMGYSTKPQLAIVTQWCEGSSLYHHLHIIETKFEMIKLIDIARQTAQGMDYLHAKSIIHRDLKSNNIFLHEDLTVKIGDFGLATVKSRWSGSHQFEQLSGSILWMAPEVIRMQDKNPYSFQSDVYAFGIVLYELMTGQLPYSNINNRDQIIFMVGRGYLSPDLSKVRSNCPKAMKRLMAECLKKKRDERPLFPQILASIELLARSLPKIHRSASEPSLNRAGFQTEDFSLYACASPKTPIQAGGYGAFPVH
Method: Activity of human recombinant B-Raf protein was assessed in vitro by assay of the incorporation of radiolabelled phosphate to recombinant MAP kinase kinase (MEK), a known physiologic substrate of B-Raf. Catalytically active human recombinant B-Raf protein was obtained by purification from Sf9 insect cells infected with a human B-Raf recombinant baculovirus expression vector.
Method: Standard assay conditions of B-Raf catalytic activity utilised 3 ug of GST-kdMEK, 10 uM ATP and 2uCi ^33P-ATP, 50 mM MOPS, 0.1 mM EDTA, 0.1M sucrose, 10 mM MgCl2 plus 0.1% dimethylsulphoxide (containing compound where appropriate) in a total reaction volume of 30 ul. Reactions were incubated at 25° C. for 90 minutes and reactions terminated by addition of ethylenediaminetetraacetic acid (EDTA) to a final concentration of 50 uM. 10 ul of reaction was spotted to P81 phosphocellulose paper and air dried. Following four washes in ice cold 10% trichloroacetic acid, 0.5% phosphoric acid, papers were air dried prior to addition of liquid scintillant and measurement of radioactvity in a scintillation counter.

Row | IC50 [2] [nM] | IC50 [3] [nM] | IC50 (human melanoma A375P) [nM] | IC50 (human melanoma SKMEL3) [µM] | IC50 (human melanoma SKMEL2) [nM] | Kd [4] [nM] | SMILES | IC50 [1] [µM]
1 | 10 | 10 | 43 | 0.65 | 170 | – | ON=C1CCc2cc(-c3cc(C4CCNCC4)oc3-c3ccncc3)ccc21 [Example 31, 5-(5-Piperidin-4-yl-2-pyridin-4-yl-furan-3-yl)-indan-1-one oxime] | 21
2 | 490 | 750 | 1300 | 5.3 | 4200 | – | ON=C1CCc2cc(-c3cc(CN4CCOCC4)oc3-c3ccncc3)ccc21 [Example 1, 5-(5-Morpholin-4-ylmethyl-2-pyridin-4-yl-furan-3-yl)-indan-1-one oxime] | > 30
3 | 890 | 230 | 600 | 5.4 | 2500 | 3.6 | O=S1(=O)CCN(Cc2cc(-c3ccc4c(c3)CCC4=NO)c(-c3ccncc3)o2)CC1 [Example 5, 5-[5-(1,1-Dioxo-1-thiomorpholin-4-ylmethyl)-2-pyridin-4-yl-furan-3-yl]-indan-1-one oxime] | > 30

Reference: patent publication US7452906B2, “Pyridine derivatives as Raf kinase inhibitors” (SmithKline Beecham P.L.C., priority 2001, dated 2008)
